Like-named read-outs stand apart in the source and are kept apart here.
What was measured:
[1] = Musculoskeletal adverse events, study A4141001
CYP3A4 = CYP3A4 (Homo sapiens, UniProt P08684); assay: biochemical
Experimental: (§1) Human livers, HLM141, HLM143, and HLM144 were selected from the University of Washington Human Liver Bank for this study. […] The actual concentrations used for each of the other probes are specified below. […] The seven isoforms and the metabolic pathway of each of the probes used to monitor specific isoform activity are listed below.
CYP3A4: The 10-hydroxylation of (R)-warfarin (0.5 mM). The reaction is monitored by quantitative GC/MS using 10-hydroxywarfarin-(d5-phenyl) as the internal standard.

CYP2A6 = target: T1, CYP2A6 (Homo sapiens, UniProt P11509); assay: biochemical
T1 sequence (P11509 1-494): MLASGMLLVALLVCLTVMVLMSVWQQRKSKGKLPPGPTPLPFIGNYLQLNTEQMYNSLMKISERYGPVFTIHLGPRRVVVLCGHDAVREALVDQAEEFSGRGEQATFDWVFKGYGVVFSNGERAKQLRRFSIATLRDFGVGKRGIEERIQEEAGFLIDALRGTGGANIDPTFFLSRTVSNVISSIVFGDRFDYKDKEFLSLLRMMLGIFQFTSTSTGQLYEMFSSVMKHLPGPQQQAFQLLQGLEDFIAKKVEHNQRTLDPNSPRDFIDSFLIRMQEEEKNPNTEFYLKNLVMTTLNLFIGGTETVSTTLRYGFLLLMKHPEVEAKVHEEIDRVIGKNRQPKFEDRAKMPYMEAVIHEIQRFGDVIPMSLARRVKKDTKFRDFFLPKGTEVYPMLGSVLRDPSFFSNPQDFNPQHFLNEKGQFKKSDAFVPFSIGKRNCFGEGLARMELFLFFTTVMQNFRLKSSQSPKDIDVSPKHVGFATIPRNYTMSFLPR
Experimental: as §1
CYP2A6: The 7-hydroxylation of coumarin (4 μM). The reaction is monitored by HPLC using florescence detection.

[2] = test system: STAM model of non-alcoholic steatohepatitis (NASH); details: for Sirius Red positive area (mean ± SD) / NAFLD Activity score, NAS (mean ± SD) / Fasting blood glucose (mean ± SD) / Plasma insulin (mean ± SD) / Liver hydroxyl-proline (mean ± SD) / Liver triglyceride (mean ± SD) / Non-fasting blood glucose (mean ± SD) / Plasma ALT (mean ± SD) / Plasma AST (mean ± SD) / Plasma ketone body (mean ± SD): STAM mice; for Fasting blood glucose (mean ± SD) / Plasma insulin (mean ± SD): Day 18, 8 hours of fasting; for Liver hydroxyl-proline (mean ± SD) / Liver triglyceride (mean ± SD) / Non-fasting blood glucose (mean ± SD) / Plasma ALT (mean ± SD) / Plasma AST (mean ± SD) / Plasma ketone body (mean ± SD): termination (Day 21)
Experimental: Telmisartan (Micardis®) was purchased from Boehringer Ingelheim GmbH (Germany) and dissolved in pure water.
Telmisartan was administered at a dose of 10 mg/kg once daily.
Measurement of whole blood and plasma biochemistry: Eight-hour fasting blood samples were collected from facial vein at 3 days prior to termination.
Eight-hour fasting blood glucose was measured in whole blood using Life Check (EIDIA Co. Ltd., Japan). For plasma biochemistry, eight-hour fasting blood was collected in polypropylene tubes with anticoagulant (Novo-Heparin, Mochida Pharmaceutical, Japan) and centrifuged at 1,000×g for 15 minutes at 4° C. The supernatant was collected and stored at −80° C. until use. Plasma insulin levels were quantified by Ultra Sensitive Mouse Insulin ELISA kit (Morinaga Institute of Biological Science, Inc., Japan).
On the day of termination, non-fasting blood glucose was measured in whole blood using Life Check. For plasma biochemistry, non-fasting blood was collected in polypropylene tubes with anticoagulant (Novo-Heparin) and centrifuged at 1,000×g for 15 minutes at 4° C. The supernatant was collected and stored at −80° C. until use. Plasma ALT, AST, ALP, GGT, BUN, creatinine and total bilirubin levels were measured by FUJI DRI-CHEM 7000 (Fujifilm Corporation, Japan). Plasma ketone body levels were quantified by EnzyChrom™ Ketone Body Assay Kit (BioAssay Systems, USA). […]
Histological analyses: For HE staining, sections were cut from paraffin blocks of liver tissue prefixed in Bouin's solution and stained with Lillie-Mayer's Hematoxylin (Muto Pure Chemicals Co., Ltd., Japan) and eosin solution (Wako Pure Chemical Industries). […] To visualize collagen deposition, Bouin's fixed liver sections were stained using picro-Sirius red solution (Waldeck, Germany). […]
Statistical analyses were performed using Bonferroni Multiple Comparison Test on GraphPad Prism 6 (GraphPad Software Inc., USA). […] Results were expressed as mean±SD.
The viability, clinical signs and behavior were monitored daily. Body weight was recorded before the treatment. […] The animals were sacrificed by exsanguination through direct cardiac puncture under isoflurane anesthesia (Pfizer Inc.) at 9 weeks of age.

[3] = study A4141001, patient type IIa
[4] = study A4141001, patient type IIa + IIb
[5] = study A4141001, patient type IIb
[6] = gemcabene 30 mg/kg PO QD, n = 8
[7] = gemcabene 100 mg/kg PO QD, n = 8
[8] = gemcabene 300 mg/kg PO QD, n = 8

CYP3A4, sequence (P08684 whole entry, canonical isoform): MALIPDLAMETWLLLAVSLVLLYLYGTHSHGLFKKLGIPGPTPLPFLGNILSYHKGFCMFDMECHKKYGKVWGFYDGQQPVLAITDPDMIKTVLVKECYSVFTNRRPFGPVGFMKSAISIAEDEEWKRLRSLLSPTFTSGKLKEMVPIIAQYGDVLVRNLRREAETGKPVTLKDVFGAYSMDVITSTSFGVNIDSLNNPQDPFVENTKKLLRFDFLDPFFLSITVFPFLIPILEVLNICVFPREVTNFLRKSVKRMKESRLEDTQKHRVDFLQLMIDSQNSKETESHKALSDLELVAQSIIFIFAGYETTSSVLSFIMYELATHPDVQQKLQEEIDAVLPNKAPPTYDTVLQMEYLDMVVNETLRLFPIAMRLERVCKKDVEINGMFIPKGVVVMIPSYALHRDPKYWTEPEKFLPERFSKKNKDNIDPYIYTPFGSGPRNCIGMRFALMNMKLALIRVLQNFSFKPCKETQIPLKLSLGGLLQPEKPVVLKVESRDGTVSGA

## CC(C)(CCCCOCCCCC(C)(C)C(=O)O)C(=O)O [Gemcabene, 6,6′-oxybis(2,2-dimethylhexanoic acid)]
[1]; [3]
  % of patients experiencing a musculoskeletal adverse event: 0.0%
  No = number of muscle skeletal adverse events: 0
[1]; [4]
  % of patients experiencing a musculoskeletal adverse event: 0.0%
  No = number of muscle skeletal adverse events: 0
[1]; [5]
  % of patients experiencing a musculoskeletal adverse event: 0.0%
  No = number of muscle skeletal adverse events: 0
CYP3A4
  IC50: > 1500 µM
CYP3A4; human, microsomes
  IC50: > 1500 µM
CYP2A6
  IC50: > 1500 µM
CYP2A6; human, microsomes
  IC50: > 1500 µM
[2]; gemcabene 30 mg/kg PO QD 6-9 wks
  Sirius Red positive area (mean ± SD): 0.56 ± 0.18%
[2]; gemcabene 30 mg/kg PO QD 6-9 wks, n = 8
  NAFLD Activity score, NAS (mean ± SD): 3.4 ± 1.1
[2]; gemcabene 30 mg/kg PO QD
  Fasting blood glucose (mean ± SD): 437 ± 42 mg/dL
  Plasma insulin (mean ± SD): 0.13 ± 0.04 ng/mL
  Liver hydroxyl-proline (mean ± SD): 0.66 ± 0.12 μg/mg total protein
  Liver triglyceride (mean ± SD): 49.2 ± 8.6 mg/g liver
  Non-fasting blood glucose (mean ± SD): 607 ± 48 mg/dL
  Plasma ALT (mean ± SD): 41 ± 15 U/L
  Plasma AST (mean ± SD): 100 ± 44 U/L
  Plasma ketone body (mean ± SD): 9.43 ± 2.35 mM
[2]; gemcabene 100 mg/kg PO QD 6-9 wks
  Sirius Red positive area (mean ± SD): 0.53 ± 0.18%
[2]; gemcabene 100 mg/kg PO QD 6-9 wks, n = 8
  NAFLD Activity score, NAS (mean ± SD): 3.6 ± 1.4
[2]; gemcabene 100 mg/kg PO QD
  Fasting blood glucose (mean ± SD): 441 ± 46 mg/dL
  Plasma insulin (mean ± SD): 0.17 ± 0.06 ng/mL
  Liver hydroxyl-proline (mean ± SD): 0.74 ± 0.38 μg/mg total protein
  Liver triglyceride (mean ± SD): 58.4 ± 14.5 mg/g liver
  Non-fasting blood glucose (mean ± SD): 653 ± 53 mg/dL
  Plasma ALT (mean ± SD): 27 ± 7 U/L
  Plasma AST (mean ± SD): 88 ± 32 U/L
  Plasma ketone body (mean ± SD): 5.75 ± 3.24 mM
[2]; gemcabene 300 mg/kg PO QD 6-9 wks
  Sirius Red positive area (mean ± SD): 0.59 ± 0.16%
[2]; gemcabene 300 mg/kg PO QD 6-9 wks, n = 8
  NAFLD Activity score, NAS (mean ± SD): 2.5 ± 0.8
[2]; gemcabene 300 mg/kg PO QD
  Fasting blood glucose (mean ± SD): 407 ± 15 mg/dL
  Plasma insulin (mean ± SD): 0.13 ± 0.04 ng/mL
  Liver hydroxyl-proline (mean ± SD): 0.70 ± 0.10 μg/mg total protein
  Liver triglyceride (mean ± SD): 56.0 ± 13.9 mg/g liver
  Non-fasting blood glucose (mean ± SD): 638 ± 63 mg/dL
  Plasma ALT (mean ± SD): 32 ± 14 U/L
  Plasma AST (mean ± SD): 147 ± 122 U/L
  Plasma ketone body (mean ± SD): 5.68 ± 3.08 mM
[2]; [6]
  number of mice with Hepatocyte ballooning score 0 (None): 4
  number of mice with Hepatocyte ballooning score 1 (Few balloon cells): 2
  number of mice with Hepatocyte ballooning score 2 (Many cells/prominent ballooning): 2
  number of mice with Lobular inflammation score 0 (No foci): 1
  number of mice with Lobular inflammation score 1 (<2 foci/200x): 2
  number of mice with Lobular inflammation score 2 (2-4 foci/200x): 4
  number of mice with Lobular inflammation score 3 (>4 foci/200x): 1
  number of mice with Steatosis score 1 (5-33%): 8
[2]; [7]
  number of mice with Hepatocyte ballooning score 0 (None): 1
  number of mice with Hepatocyte ballooning score 1 (Few balloon cells): 4
  number of mice with Hepatocyte ballooning score 2 (Many cells/prominent ballooning): 3
  number of mice with Lobular inflammation score 0 (No foci): 2
  number of mice with Lobular inflammation score 1 (<2 foci/200x): 1
  number of mice with Lobular inflammation score 2 (2-4 foci/200x): 5
  number of mice with Steatosis score 1 (5-33%): 8
[2]; [8]
  number of mice with Hepatocyte ballooning score 0 (None): 4
  number of mice with Hepatocyte ballooning score 1 (Few balloon cells): 3
  number of mice with Hepatocyte ballooning score 2 (Many cells/prominent ballooning): 1
  number of mice with Lobular inflammation score 0 (No foci): 2
  number of mice with Lobular inflammation score 1 (<2 foci/200x): 2
  number of mice with Lobular inflammation score 2 (2-4 foci/200x): 4
  number of mice with Steatosis score 0 (<5%): 3
  number of mice with Steatosis score 1 (5-33%): 5

— patent US20170172955A1, “Treatment of Mixed Dyslipidemia” (priority 2015, published 2017)
